Patent US20150105252A1, “SUBSTITUTED PYRAZOLES AS HERBICIDES” (E I DU PONT DE NEMOURS AND COMPANY, priority 2013, published 2015)

Key:
canarygrass = assay: Test D preemergence; format: in vivo, Phalaris minor; conditions: for Plant response rating, Canarygrass: Preemergence, scale 0 to 100
Description: (§1) Seeds of plant species selected from bluegrass (annual bluegrass, Poa annua), blackgrass (Alopecurus myosuroides), canarygrass (littleseed canarygrass, Phalaris minor), chickweed (common chickweed, Stellaria media), galium (catchweed bedstraw, Galium aparine), bromegrass, downy (downy bromegrass, Bromus tectorum), field poppy (Papaver rhoeas), field violet (Viola arvensis), foxtail, green (green foxtail, Setaria viridis), deadnettle (henbit deadnettle, Lamium amplexicaule), ryegrass, Italian (Italian ryegrass, Lolium multiflorum), kochia (Kochia scoparia), lambsquarters (Chenopodium album), oilseed rape (Brassica napus), pigweed (redroot pigweed, Amaranthus retroflexus), chamomile (scentless chamomile, Matricaria inodora), speedwell (bird's-eye speedwell, Veronica persica), barley, spring (spring barley, Hordeum vulgare), wheat, spring (spring wheat, Triticum aestivum), buckwheat, wild (wild buckwheat, Polygonum convolvulus), mustard, wild (wild mustard, Sinapis arvensis), oat, wild (wild oat, Avena fatua), radish, wild (wild radish, Raphanus raphanistrum), windgrass (Apera spica-venti), Russian thistle (Salsola kali), barley, winter (winter barley, Hordeum vulgare), and wheat, winter (winter wheat, Triticum aestivum) were planted into a silt loam soil and treated preemergence with test chemicals formulated in a non-phytotoxic solvent mixture which included a surfactant.
(§2) At the same time, these species were planted in pots containing Redi-Earth® planting medium (Scotts Company, 14111 Scottslawn Road, Marysville, Ohio 43041) comprising spaghnum peat moss, vermiculite, wetting agent and starter nutrients and treated with postemergence applications of the test chemicals formulated in the same manner. Plants ranged in height from 2 to 18 cm (1- to 4-leaf stage). Treated plants and controls were maintained in a controlled growth environment for 14 to 21 days after which time all species were compared to controls and visually evaluated. Plant response ratings, summarized in Table D, are based on a scale of 0 to 100 where 0 is no effect and 100 is complete control. A dash (-) response means no test result.

chickweed = assay: Test D preemergence; format: in vivo, Stellaria media; conditions: for Plant response rating, Chickweed: Preemergence, scale 0 to 100
Description: as §1, §2

field poppy = assay: Test D preemergence; format: in vivo, Papaver rhoeas; conditions: for Plant response rating, Field Poppy: Preemergence, scale 0 to 100
Method in brief: (§3)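 Seeds are planted in silt loam and treated preemergence, while parallel plantings in a peat moss/vermiculite medium with starter nutrients receive postemergence sprays at the 1- to 4-leaf stage. All formulations use a non-phytotoxic solvent mixture with surfactant. Plants are kept in a controlled growth environment and rated visually after 14–21 days.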

field violet = assay: Test D preemergence; format: in vivo, Viola arvensis; conditions: for Plant response rating, Field Violet: Preemergence, scale 0 to 100
Description: as §1, §2

foxtail, green [1] = assay: Test D preemergence; format: in vivo, Setaria viridis; conditions: for Plant response rating, Foxtail, Green: Preemergence, scale 0 to 100
Method in brief: as §3

deadnettle = assay: Test D preemergence; format: in vivo, Lamium amplexicaule; conditions: for Plant response rating, Deadnettle: Preemergence, scale 0 to 100
Method in brief: as §3

barley, spring [2] = assay: Test D preemergence; format: in vivo, Hordeum vulgare; conditions: for Plant response rating, Barley, Spring: Preemergence, scale 0 to 100
Method in brief: as §3

barley, winter [3] = assay: Test D preemergence; format: in vivo, Hordeum vulgare; conditions: for Plant response rating, Barley, Winter: Preemergence, scale 0 to 100
Method in brief: as §3

wheat, spring = assay: Test D preemergence; format: in vivo, Triticum aestivum; conditions: for Plant response rating, Wheat, Spring: Preemergence, scale 0 to 100
Description: as §1, §2

wheat, winter = assay: Test D preemergence; format: in vivo, Triticum aestivum; conditions: for Plant response rating, Wheat, Winter: Preemergence, scale 0 to 100
Description: as §1, §2

buckwheat, wild [4] = assay: Test D preemergence; format: in vivo, Polygonum convolvulus; conditions: for Plant response rating, Buckwheat, Wild: Preemergence, scale 0 to 100
Method in brief: as §3

mustard, wild = assay: Test D preemergence; format: in vivo, Sinapis arvensis; conditions: for Plant response rating, Mustard, Wild: Preemergence, scale 0 to 100
Method in brief: as §3

windgrass = assay: Test D preemergence; format: in vivo, Apera spica-venti; conditions: for Plant response rating, Windgrass: Preemergence, scale 0 to 100
Method in brief: as §3

blackgrass = assay: Test D postemergence; format: in vivo, Alopecurus myosuroides; conditions: scale 0 to 100
Method in brief: as §3

foxtail, green [5] = assay: Test D postemergence; format: in vivo, Setaria viridis; conditions: scale 0 to 100
Method in brief: as §3

kochia = assay: Test D postemergence; format: in vivo, Kochia scoparia; conditions: scale 0 to 100
Method in brief: as §3

pigweed = assay: Test D postemergence; format: in vivo, Amaranthus retroflexus; conditions: scale 0 to 100
Method in brief: as §3

barley, spring [6] = assay: Test D postemergence; format: in vivo, Hordeum vulgare; conditions: scale 0 to 100
Description: as §1, §2

barley, winter [7] = assay: Test D postemergence; format: in vivo, Hordeum vulgare; conditions: scale 0 to 100
Description: as §1, §2

buckwheat, wild [8] = assay: Test D postemergence; format: in vivo, Polygonum convolvulus; conditions: scale 0 to 100
Method in brief: as §3

[9] = 16 g ai/ha, taken as preemergence

Cc1cc(C(=O)NCC(F)(F)F)nn1Cc1ccnc(C(F)(F)F)c1 [Compound 74]
Plant response rating (scale 0 to 100), Canarygrass (canarygrass; [9]): 0 | Plant response rating, Canarygrass (canarygrass; 31 g ai/ha): 0 | Plant response rating, Canarygrass (canarygrass; 62 g ai/ha): 0 | Plant response rating, Canarygrass (canarygrass; 125 g ai/ha): 5 | Plant response rating (scale 0 to 100), Chickweed (chickweed; [9]): 20 | Plant response rating, Chickweed (chickweed; 31 g ai/ha): 70 | Plant response rating, Chickweed (chickweed; 62 g ai/ha): 100 | Plant response rating, Chickweed (chickweed; 125 g ai/ha): 100 | Plant response rating (scale 0 to 100), Field Poppy (field poppy; [9]): 50 | Plant response rating, Field Poppy (field poppy; 31 g ai/ha): 80 | Plant response rating, Field Poppy (field poppy; 62 g ai/ha): 95 | Plant response rating, Field Poppy (field poppy; 125 g ai/ha): 100 | Plant response rating (scale 0 to 100), Field Violet (field violet; [9]): 25 | Plant response rating, Field Violet (field violet; 31 g ai/ha): 60 | Plant response rating, Field Violet (field violet; 62 g ai/ha): 60 | Plant response rating, Field Violet (field violet; 125 g ai/ha): 95 | Plant response rating (scale 0 to 100), Foxtail, Green (foxtail, green [1]; [9]): 0 | Plant response rating, Foxtail, Green (foxtail, green [1]; 31 g ai/ha): 5 | Plant response rating, Foxtail, Green (foxtail, green [1]; 62 g ai/ha): 10 | Plant response rating, Foxtail, Green (foxtail, green [1]; 125 g ai/ha): 30 | Plant response rating (scale 0 to 100), Deadnettle (deadnettle; [9]): 0 | Plant response rating, Deadnettle (deadnettle; 31 g ai/ha): 5 | Plant response rating, Deadnettle (deadnettle; 62 g ai/ha): 10 | Plant response rating, Deadnettle (deadnettle; 125 g ai/ha): 20 | Plant response rating (scale 0 to 100), Barley, Spring (barley, spring [2]; 16 g ai/ha, taken as preemergence, 0 = no effect, 100 = complete control): 0 | Plant response rating, Barley, Spring (barley, spring [2]; 31 g ai/ha): 0 | Plant response rating, Barley, Spring (barley, spring [2]; 62 g ai/ha): 0 | Plant response rating, Barley, Spring (barley, spring [2]; 125 g ai/ha): 5 | Plant response rating (scale 0 to 100), Barley, Winter (barley, winter [3]; [9]): 0 | Plant response rating, Barley, Winter (barley, winter [3]; 31 g ai/ha): 0 | Plant response rating, Barley, Winter (barley, winter [3]; 62 g ai/ha): 0 | Plant response rating, Barley, Winter (barley, winter [3]; 125 g ai/ha): 0 | Plant response rating (scale 0 to 100), Wheat, Spring (wheat, spring; [9]): 0 | Plant response rating, Wheat, Spring (wheat, spring; 31 g ai/ha): 0 | Plant response rating, Wheat, Spring (wheat, spring; 62 g ai/ha): 0 | Plant response rating, Wheat, Spring (wheat, spring; 125 g ai/ha): 0 | Plant response rating (scale 0 to 100), Wheat, Winter (wheat, winter; [9]): 0 | Plant response rating, Wheat, Winter (wheat, winter; 31 g ai/ha): 0 | Plant response rating, Wheat, Winter (wheat, winter; 62 g ai/ha): 0 | Plant response rating, Wheat, Winter (wheat, winter; 125 g ai/ha): 5 | Plant response rating (scale 0 to 100), Buckwheat, Wild (buckwheat, wild [4]; [9]): 25 | Plant response rating, Buckwheat, Wild (buckwheat, wild [4]; 31 g ai/ha): 35 | Plant response rating, Buckwheat, Wild (buckwheat, wild [4]; 62 g ai/ha): 45 | Plant response rating, Buckwheat, Wild (buckwheat, wild [4]; 125 g ai/ha): 65 | Plant response rating (scale 0 to 100), Mustard, Wild (mustard, wild; [9]): 15 | Plant response rating, Mustard, Wild (mustard, wild; 31 g ai/ha): 25 | Plant response rating, Mustard, Wild (mustard, wild; 62 g ai/ha): 25 | Plant response rating, Mustard, Wild (mustard, wild; 125 g ai/ha): 80 | Plant response rating (scale 0 to 100), Windgrass (windgrass; [9]): 0 | Plant response rating, Windgrass (windgrass; 31 g ai/ha): 0 | Plant response rating, Windgrass (windgrass; 62 g ai/ha): 25 | Plant response rating, Windgrass (windgrass; 125 g ai/ha): 35 | Plant response rating, Blackgrass (blackgrass; Postemergence, 16 g ai/ha): 0 | Blackgrass plant response rating (blackgrass; Postemergence, 31 g ai/ha): 0 | Blackgrass plant response rating (blackgrass; Postemergence, 125 g ai/ha): 0 | Blackgrass plant response rating (blackgrass; postemergence, 62 g ai/ha): 5 | Plant response rating, Foxtail, Green (foxtail, green [5]; Postemergence, 16 g ai/ha): 0 | Foxtail, Green plant response rating (foxtail, green [5]; Postemergence, 31 g ai/ha): 10 | Foxtail, Green plant response rating (foxtail, green [5]; Postemergence, 125 g ai/ha): 40 | Foxtail, Green plant response rating (foxtail, green [5]; postemergence, 62 g ai/ha): 15 | Plant response rating, Kochia (kochia; Postemergence, 16 g ai/ha): 15 | Kochia plant response rating (kochia; Postemergence, 31 g ai/ha): 25 | Kochia plant response rating (kochia; Postemergence, 125 g ai/ha): 65 | Kochia plant response rating (kochia; postemergence, 62 g ai/ha): 35 | Plant response rating, Pigweed (pigweed; Postemergence, 16 g ai/ha): 65 | Pigweed plant response rating (pigweed; Postemergence, 31 g ai/ha): 50 | Pigweed plant response rating (pigweed; Postemergence, 125 g ai/ha): 65 | Pigweed plant response rating (pigweed; postemergence, 62 g ai/ha): 65 | Barley, Spring plant response rating (barley, spring [6]; Postemergence, 16 g ai/ha): 0 | Barley, Spring plant response rating (barley, spring [6]; Postemergence, 31 g ai/ha): 0 | Barley, Spring plant response rating (barley, spring [6]; Postemergence, 125 g ai/ha): 0 | Barley, Spring plant response rating (barley, spring [6]; postemergence, 62 g ai/ha): 0 | Barley, Winter plant response rating (barley, winter [7]; Postemergence, 16 g ai/ha): 0 | Barley, Winter plant response rating (barley, winter [7]; Postemergence, 31 g ai/ha): 0 | Barley, Winter plant response rating (barley, winter [7]; Postemergence, 125 g ai/ha): 5 | Barley, Winter plant response rating (barley, winter [7]; postemergence, 62 g ai/ha): 0 | Plant response rating, Buckwheat, Wild (buckwheat, wild [8]; Postemergence, 16 g ai/ha): 60 | Buckwheat, Wild plant response rating (buckwheat, wild [8]; Postemergence, 31 g ai/ha): 60 | Buckwheat, Wild plant response rating (buckwheat, wild [8]; Postemergence, 125 g ai/ha): 65 | Buckwheat, Wild plant response rating (buckwheat, wild [8]; postemergence, 62 g ai/ha): 45
